Source: ChEMBL document CHEMBL5537169, “Structure-Activity Relationships and Discovery of (S)-6-Isopropyl-2-methoxy-3-(3-methoxypropoxy)-10-oxo-5,10-dihydro-6H-pyrido[1,2-h][1,7]naphthyridine-9-carboxylic Acid (AB-452), a Novel Orally Available HBV RNA Destabilizer” (J Med Chem, 2024)
pEC50: −log10 of the molar value. Blank lines part the entries; values can stand above or below the molecule they belong to.

Columns and labels:
[1] = system: HepG2 2.2.15; test: Cytotoxicity against human HepG2.2.15 cells by Cell-titer Glo luminescent assay; assay type: functional
[2] = system: Hepatitis B virus; test: Antiviral activity against HBV infected in human HepG2.2.15 cells assessed as inhibition of HBsAg level incubated for 6 days by microplate-based chemiluminescence immunoassay; assay type: functional, organism-based; conditions: HepG2 2.2.15, 144 h
[3] = Clearance in CD-1 mouse liver microsomes at 0.3 uM pre-incubated for 10 mins followed by NADPH addition incubated for 60 mins by LC-MS/MS analysis; assay type: ADME, Microsome; conditions: time 70 min, read-out: CLH
[4] = Drug accumulation in CD-1 mouse liver at 10 mg/kg,po measured at 0.083 to 24 hrs post administration by LC-MS/MS analysis; assay type: ADME, organism-based; conditions: in vivo, time 0.083-24 hrs
[5] = Apparent volume of distribution at steady state in CD-1 mouse at 10 mg/kg,po measured at 0.083 to 24 hrs post administration by LC-MS/MS analysis; assay type: ADME, organism-based; conditions: in vivo, time 0.083-24 hrs
[6] = Cmax in CD-1 mouse at 10 mg/kg,po measured at 0.083 to 24 hrs post administration by LC-MS/MS analysis; assay type: ADME, organism-based; conditions: in vivo, time 0.083-24 hrs
[7] = Oral bioavailability in Sprague-Dawley rat at 10 mg/kg measured at 0.083 to 24 hrs by LC-MS/MS analysis; assay type: ADME, organism-based; conditions: in vivo, time 0.083-24 hrs; for F: po, 10 mg/kg
[8] = Drug accumulation in Sprague-Dawley rat liver at 10 mg/kg,po measured at 0.083 to 24 hrs post administration by LC-MS/MS analysis; assay type: ADME, organism-based; conditions: in vivo, time 0.083-24 hrs
[9] = AUCinfinity in Sprague-Dawley rat at 10 mg/kg,po measured at 0.083 to 24 hrs post administration by LC-MS/MS analysis; assay type: ADME, organism-based; conditions: in vivo, time 0.083-24 hrs; for AUC: po, 10 mg/kg
[10] = Clearance in CD-1 mouse at 2 mg/kg,iv measured at 0.083 to 24 hrs post administration by LC-MS/MS analysis; assay type: ADME, organism-based; conditions: in vivo, time 0.083-24 hrs
[11] = Half life in CD-1 mouse at 10 mg/kg,po measured at 0.083 to 24 hrs post administration by LC-MS/MS analysis; assay type: ADME, organism-based; conditions: in vivo, time 0.083-24 hrs
[12] = AUCinfinity in CD-1 mouse at 10 mg/kg,po measured at 0.083 to 24 hrs post administration by LC-MS/MS analysis; assay type: ADME, organism-based; conditions: in vivo, time 0.083-24 hrs
[13] = Tmax in CD-1 mouse at 10 mg/kg,po measured at 0.083 to 24 hrs post administration by LC-MS/MS analysis; assay type: ADME, organism-based; conditions: in vivo, time 0.083-24 hrs
[14] = Cmax in Sprague-Dawley rat at 10 mg/kg,po measured at 0.083 to 24 hrs post administration by LC-MS/MS analysis; assay type: ADME, organism-based; conditions: in vivo, time 0.083-24 hrs
[15] = Half life in Sprague-Dawley rat at 10 mg/kg,po measured at 0.083 to 24 hrs post administration by LC-MS/MS analysis; assay type: ADME, organism-based; conditions: in vivo, time 0.083-24 hrs; for half-life: Sprague-Dawley
[16] = Oral bioavailability in CD-1 mouse at 10 mg/kg measured at 0.083 to 24 hrs by LC-MS/MS analysis; assay type: ADME, organism-based; conditions: in vivo, time 0.083-24 hrs
[17] = Apparent volume of distribution at steady state in Sprague-Dawley rat at 10 mg/kg,po measured at 0.083 to 24 hrs post administration by LC-MS/MS analysis; assay type: ADME, organism-based; conditions: in vivo, time 0.083-24 hrs
[18] = Tmax in Sprague-Dawley rat at 10 mg/kg,po measured at 0.083 to 24 hrs post administration by LC-MS/MS analysis; assay type: ADME, organism-based; conditions: in vivo, po, 10 mg/kg, time 0.083-24 hrs
[19] = Apparent volume of distribution at steady state in CD-1 mouse at 2 mg/kg,iv measured at 0.083 to 24 hrs post administration by LC-MS/MS analysis; assay type: ADME, organism-based; conditions: in vivo, time 0.083-24 hrs, read-out: Vdss(app)
[20] = Clearance in Sprague-Dawley rat at 2 mg/kg,iv measured at 0.083 to 24 hrs post administration by LC-MS/MS analysis; assay type: ADME, organism-based; conditions: in vivo, time 0.083-24 hrs
[21] = Cmax in Sprague-Dawley rat at 2 mg/kg,iv measured at 0.083 to 24 hrs post administration by LC-MS/MS analysis; assay type: ADME, organism-based; conditions: in vivo, time 0.083-24 hrs
[22] = Apparent volume of distribution at steady state in Sprague-Dawley rat at 2 mg/kg,iv measured at 0.083 to 24 hrs post administration by LC-MS/MS analysis; assay type: ADME, organism-based; conditions: in vivo, time 0.083-24 hrs, read-out: Vdss(app)
[23] = Cmax in CD-1 mouse at 2 mg/kg,iv measured at 0.083 to 24 hrs post administration by LC-MS/MS analysis; assay type: ADME, organism-based; conditions: in vivo, time 0.083-24 hrs
[24] = AUCinfinity in Sprague-Dawley rat at 2 mg/kg,iv measured at 0.083 to 24 hrs post administration by LC-MS/MS analysis; assay type: ADME, organism-based; conditions: in vivo, time 0.083-24 hrs
[25] = Drug accumulation in Sprague-Dawley rat plasma assessed as fold change in drug uptake at 10 mg/kg,po measured at 0.083 to 24 hrs post administration by LC-MS/MS analysis; assay type: ADME, organism-based; conditions: in vivo, time 0.083-24 hrs
[26] = Half life in CD-1 mouse at 2 mg/kg,iv measured at 0.083 to 24 hrs post administration by LC-MS/MS analysis; assay type: ADME, organism-based; conditions: in vivo, time 0.083-24 hrs
[27] = Half life in Sprague-Dawley rat at 2 mg/kg,iv measured at 0.083 to 24 hrs post administration by LC-MS/MS analysis; assay type: ADME, organism-based; conditions: in vivo, time 0.083-24 hrs
[28] = AUCinfinity in CD-1 mouse at 2 mg/kg,iv measured at 0.083 to 24 hrs post administration by LC-MS/MS analysis; assay type: ADME, organism-based; conditions: in vivo, time 0.083-24 hrs
[29] = Drug accumulation in CD-1 mouse liver assessed as fold change in drug uptake at 10 mg/kg,po measured at 0.083 to 24 hrs post administration by LC-MS/MS analysis; assay type: ADME, organism-based; conditions: in vivo, time 0.083-24 hrs
[30] = Drug accumulation in Sprague-Dawley rat liver assessed as fold change in drug uptake at 10 mg/kg,po measured at 0.083 to 24 hrs post administration by LC-MS/MS analysis; assay type: ADME, organism-based; conditions: in vivo, time 0.083-24 hrs
[31] = Drug accumulation in CD-1 mouse plasma assessed as fold change in drug uptake at 10 mg/kg,po measured at 0.083 to 24 hrs post administration by LC-MS/MS analysis; assay type: ADME, organism-based; conditions: in vivo, time 0.083-24 hrs
[32] = Clearance in human liver microsomes at 0.3 uM pre-incubated for 10 mins followed by NADPH addition incubated for 60 mins by LC-MS/MS analysis; assay type: ADME, Microsome; conditions: time 70 min, read-out: CLH

- pEC50 [2]: 8.40
SMILES: C=Cc1cc2c(cc1OCCCOC)OC[C@@H](C(C)C)n1cc(C(=O)O)c(=O)cc1-2
- CC50 [1]: 33 µM

- pEC50 [2]: 7.12
SMILES: COc1cc2c(cc1Cl)-c1cc(=O)c(C(=O)O)cn1C(C(C)C)CO2 (centres undefined)
- CC50 [1]: 46 µM

- pEC50 [2]: 6.02
SMILES: COCCCOc1cc2c(nc1OC)-c1cc(=O)c(C(=O)O)cn1[C@@H](C(C)C)C2
- CC50 [1]: > 50 µM

- microsomal CLint at 0.3 µM [3]: 1 µL/min/mg
- pEC50 [2]: 7.49
SMILES: CC(C)[C@@H]1COc2cc(OCC3CC3)c(Cl)cc2-c2cc(=O)c(C(=O)O)cn21
- CC50 [1]: 37 µM

- pEC50 [2]: 6.35
SMILES: COCCCOc1cc2c([nH]c1=O)-c1cc(=O)c(C(=O)O)cn1[C@H](C(C)C)C2
- CC50 [1]: > 50 µM

- Ct [4]: 575 ng/g
- Vdss(app) [5]: 0.8 L/kg
- Cmax [6]: 914 ng/mL
- F [7]: 13%
- Ct [8]: 20 ng/g
- microsomal CLint at 0.3 µM [3]: 1 µL/min/mg
- AUC [9]: 3950 ng·h/mL
- clearance [10]: 14 mL/min/kg
- half-life [11]: 0.9 h
- AUC(0-inf) [12]: 8410 ng·h/mL
- Tmax [13]: 4.8 h
- Cmax ([14]; po, 10 mg/kg): 488 ng/mL
- t1/2 ([15]; po, 10 mg/kg): 1 h
- bioavailability [16]: 69%
- pEC50 [2]: 8.22
- Vdss(app) [17]: 0.3 L/kg
- Tmax [18]: 3.1 h
SMILES: COCCCOc1cc2c(cc1C1CC1)-c1cc(=O)c(C(=O)O)cn1[C@H](C(C)C)CO2
- CC50 [1]: 42 µM

- microsomal CLint at 0.3 µM [3]: 1 µL/min/mg
- pEC50 [2]: 7.80
SMILES: COCCCCOc1cc2c(cc1Cl)-c1cc(=O)c(C(=O)O)cn1[C@H](C(C)C)CO2
- CC50 [1]: 43 µM

- microsomal CLint at 0.3 µM [3]: 6 µL/min/mg
- microsomal CLint at 0.3 µM [32]: 4 µL/min/mg
- pEC50 [2]: 7.72
SMILES: CC(C)[C@@H]1COc2cc(OCCCO)c(Cl)cc2-c2cc(=O)c(C(=O)O)cn21
- CC50 [1]: > 50 µM

- pEC50 [2]: 4.68
SMILES: CC(C)C1Cc2sc(Cl)cc2-c2cc(=O)c(C(=O)O)cn21 (centres undefined)
- CC50 [1]: > 50 µM

The next lines start with the molecule.

SMILES: COc1nc2c(s1)CC(C(C)C)n1cc(C(=O)O)c(=O)cc1-2 (centres undefined)
- CC50 [1]: > 50 µM
- pEC50 [2]: 5.42

SMILES: COc1ccc(-c2cc(=O)c(C(=O)O)cn2CC(C)(C)C)cc1OC
- pEC50 [2]: 5.00

SMILES: COc1cc2c(nc1OC)-c1cc(=O)c(C(=O)O)cn1[C@@H](C(C)C)C2
- CC50 [1]: > 50 µM
- pEC50 [2]: 6.52

SMILES: COCCCOc1cc2c(nc1OC)-c1cc(=O)c(C(=O)O)cn1[C@](C)(C(C)(C)C)C2
- Cmax [6]: 653 ng/mL
- F [7]: 56%
- Vd [19]: 4 L/kg
- AUC [9]: 1666 ng·h/mL
- clearance [20]: 40 mL/min/kg
- clearance [10]: 29 mL/min/kg
- Cmax [21]: 1680 ng/mL
- Vd [22]: 3.1 L/kg
- Cmax [23]: 834 ng/mL
- half-life [11]: 3.7 h
- AUC(0-inf) [12]: 4360 ng·h/mL
- AUC ([24]; iv, 2 mg/kg): 1199 ng·h/mL
- fold change (FC) [25]: 7.4
- Cmax ([14]; Sprague-Dawley, read-out: Cmax): 274 ng/mL
- half-life [26]: 1.7 h
- half-life [27]: 2.9 h
- half-life [15]: 5.2 h
- bioavailability [16]: 92%
- CC50 [1]: 41 µM
- AUC(0-inf) [28]: 914 ng·h/mL
- fold change (FC) [29]: 41
- fold change (FC) [30]: 35
- pEC50 [2]: 9.00
- fold change (FC) [31]: 4

SMILES: COCCCOc1cc2c(nc1OC)-c1cc(=O)c(C(=O)O)cn1[C@](C)(C(C)C)C2
- Cmax [6]: 639 ng/mL
- bioavailability ([7]; Sprague-Dawley): 82%
- Vd [19]: 4 L/kg
- AUC(0-inf) ([9]; Sprague-Dawley): 6480 ng·h/mL
- clearance [20]: 22 mL/min/kg
- clearance [10]: 55 mL/min/kg
- Cmax [21]: 1590 ng/mL
- Vd [22]: 2.7 L/kg
- Cmax [23]: 470 ng/mL
- half-life [11]: 4.5 h
- AUC(0-inf) [12]: 4160 ng·h/mL
- AUC(0-inf) ([24]; Sprague-Dawley): 1570 ng·h/mL
- fold change (FC) [25]: 2.7
- Cmax ([14]; Sprague-Dawley, read-out: Cmax): 965 ng/mL
- half-life [26]: 1.5 h
- half-life [27]: 4.4 h
- half-life [15]: 4.4 h
- bioavailability [16]: 136%
- CC50 [1]: > 50 µM
- AUC(0-inf) [28]: 615 ng·h/mL
- fold change (FC) [29]: 1
- fold change (FC) [30]: 15
- pEC50 [2]: 8.10
- fold change (FC) [31]: 0.1

SMILES: COc1cc2c(nc1OC)-c1cc(=O)c(C(=O)O)cn1C(C(C)C)C2 (centres undefined)
- CC50 [1]: > 50 µM
- pEC50 [2]: 7.85

SMILES: COc1cccc(Cn2cc(C(C)C)n3cc(C(=O)O)c(=O)cc3c2=O)c1
- pEC50 [2]: 5.30
